These are literature values, as cited in US20140107223A1, “TOPICAL UBIQUINOL SUPPLEMENT SKIN CARE COMPOSITIONS” (WHITEHILL ORAL TECHNOLOGIES, INC., priority 2012, published 2014).

For data set [1] the following is noted: topical once weekly via syringe for six weeks, combined with mechanical debridement.
The subject of data set [2] is CRP concentrations. The following applies: dietary supplementation, healthy baboons.
Experiment in data set [3]: not given
This is another data set of the same source.

For data set [4] the following is noted: 150 mg capsule/day for two months.
The test system of data set [5] is human monocytic cellline THP-1. The following applies: LPS-stimulated THP-1.

Regarding `COC1=C(OC)C(=O)C(C/C=C(\C)CC/C=C(\C)CC/C=C(\C)CC/C=C(\C)CC/C=C(\C)CC/C=C(\C)CC/C=C(\C)CC/C=C(\C)CC/C=C(\C)CCC=C(C)C)=C(C)C1=O` [CoQ10, coenzyme Q10], the bleeding on probing entry in data set [1] was “no bleeding at six weeks”. In addition, the “baseline inflammatory status indicated by CRP concentrations” value in data set [2] is reported as “significantly enhances this anti-inflammatory effect”.

On to `COc1c(O)c(C)c(C/C=C(\C)CC/C=C(\C)CC/C=C(\C)CC/C=C(\C)CC/C=C(\C)CC/C=C(\C)CC/C=C(\C)CC/C=C(\C)CC/C=C(\C)CCC=C(C)C)c(O)c1OC` [UBIQUINOL], for which the bioavailability versus ubiquinone result (oral) was “greater bioavailability than ubiquinone”. The “time to steady-state concentrations” value (oral administration) is recorded as “two”. Besides, the “time required to reach peak concentration” value (oral administration, absorption from the gastrointestinal tract) was “approximately 6 hours”. For the same molecule, for the setting “oral, 150 mg per day in a softgel, within 28 days”, the peak blood values is 3.84 µg/mL. Further, in data set [3], the water solubility result is given as “less than 0.1 mg/ml”. The “effect on oral environment for periodontal disease” value in data set [4] was “is effective in improving oral environment for periodontal disease”. Further, in data set [5], the “effect on inflammatory cytokines and chemokines in vitro” value was “anti-inflammatory effects”.

With Vitamin E, the “baseline inflammatory status indicated by CRP concentrations” value in data set [2] is “reduces baseline inflammatory status”.
